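Growth conditions: 96-well plates. Treatment: test compound, 48 hours, 5 concentrations. Analysis: linear interpolation between bracketing concentrations; unreached endpoints set to highest concentration. The concentration for 50% growth inhibition is given as GI50.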 The source made the active and inactive calls. Rule as the data show it: active = GI50 up to about 1.1 µM and inactive = higher.
Tests used:
Assay in all cases: NCI anticancer screen, dose series, 48 h
RXF 631 = system: RXF 631
HCT-116 = system: HCT-116
Malme-3M = system: Malme-3M
NCI-H522 = system: NCI-H522
SW-620 = system: SW-620
SN12C = system: SN12C
HT-29 = system: HT-29
LOX IMVI = system: LOX IMVI
SNB-19 = system: SNB-19
OVCAR-3 = system: OVCAR-3
HCC 2998 = system: HCC 2998
OVCAR-5 = system: OVCAR-5
LXFL 529 = system: LXFL 529
DLD-1 = system: DLD-1
SNB-75 = system: SNB-75
U-251 = system: U-251
SK-MEL-2 = system: SK-MEL-2
TK-10 = system: TK-10
RPMI-8226 = system: RPMI-8226
HL-60 = system: HL-60
NCI-H460 = system: NCI-H460
OVCAR-8 = system: OVCAR-8
M19-MEL = system: M19-MEL
NCI-H226 = system: NCI-H226
KM12 = system: KM12
A498 = system: A498
EKVX = system: EKVX
CCRF-CEM = system: CCRF-CEM
SK-OV-3 = system: SK-OV-3
UACC-62 = system: UACC-62
SF-268 = system: SF-268
HOP-18 = system: HOP-18
COLO 205 = system: COLO 205
SR = system: SR
KM-20L2 = system: KM-20L2
ACHN = system: ACHN
OVCAR-4 = system: OVCAR-4
SK-MEL-5 = system: SK-MEL-5
HOP-62 = system: HOP-62
SF-539 = system: SF-539
A549 = system: A549
SNB-78 = system: SNB-78
NCI-H23 = system: NCI-H23
UO-31 = system: UO-31
DMS-273 = system: DMS-273
HCT-15 = system: HCT-15
K562 = system: K562
SF-295 = system: SF-295
IGROV-1 = system: IGROV-1
MOLT-4 = system: MOLT-4
SK-MEL-28 = system: SK-MEL-28
UACC-257 = system: UACC-257
HOP-92 = system: HOP-92
CAKI-1 = system: CAKI-1
M14 = system: M14
786-0 = system: 786-0

With `O=C1CCC(c2ccccc2)C(O)(C(=O)O)C1` (stereo unspecified) the GI50 (RXF 631) was > 100 µM (inactive), the GI50 (HCT-116) was > 100 µM (inactive) and the GI50 (Malme-3M) was > 100 µM (inactive). For the same molecule, the GI50 (NCI-H522) was > 100 µM (inactive), the GI50 (SW-620) was > 100 µM (inactive) and the GI50 (SN12C) was > 100 µM (inactive). For the same molecule, the GI50 (HT-29) was > 100 µM (inactive), the GI50 (LOX IMVI) was > 100 µM (inactive) and the GI50 (SNB-19) was > 100 µM (inactive). The GI50 (OVCAR-3) was > 100 µM (inactive), the GI50 (HCC 2998) was > 100 µM (inactive) and the GI50 (OVCAR-5) was > 100 µM (inactive). For the same molecule, the GI50 (LXFL 529) was > 100 µM (inactive), the GI50 (DLD-1) was > 100 µM (inactive) and the GI50 (SNB-75) was > 100 µM (inactive). The GI50 (U-251) was > 100 µM (inactive), the GI50 (SK-MEL-2) was > 100 µM (inactive) and the GI50 (TK-10) was > 100 µM (inactive). For the same molecule, the GI50 (RPMI-8226) was > 100 µM (inactive), the GI50 (HL-60) was > 100 µM (inactive) and the GI50 (NCI-H460) was > 100 µM (inactive). The GI50 (OVCAR-8) was > 100 µM (inactive), the GI50 (M19-MEL) was > 100 µM (inactive) and the GI50 (NCI-H226) was > 100 µM (inactive). The GI50 (KM12) was > 100 µM (inactive), the GI50 (A498) was > 100 µM (inactive) and the GI50 (EKVX) was > 100 µM (inactive). The GI50 (CCRF-CEM) was > 100 µM (inactive), the GI50 (SK-OV-3) was > 100 µM (inactive) and the GI50 (UACC-62) was > 100 µM (inactive). For the same molecule, the GI50 (SF-268) was > 100 µM (inactive), the GI50 (HOP-18) was > 100 µM (inactive) and the GI50 (COLO 205) was > 100 µM (inactive). The GI50 (SR) was > 100 µM (inactive), the GI50 (KM-20L2) was > 100 µM (inactive) and the GI50 (ACHN) was > 100 µM (inactive). The GI50 (OVCAR-4) was > 100 µM (inactive), the GI50 (SK-MEL-5) was > 100 µM (inactive) and the GI50 (HOP-62) was > 100 µM (inactive). For the same molecule, the GI50 (SF-539) was > 100 µM (inactive), the GI50 (A549) was > 100 µM (inactive) and the GI50 (SNB-78) was > 100 µM (inactive). For the same molecule, the GI50 (NCI-H23) was > 100 µM (inactive), the GI50 (UO-31) was > 100 µM (inactive) and the GI50 (DMS-273) was > 100 µM (inactive). For the same molecule, the GI50 (HCT-15) was over 100 µM, the GI50 (K562) was > 100 µM (inactive) and the GI50 (SF-295) was > 100 µM (inactive). The GI50 (IGROV-1) was > 100 µM (inactive), the GI50 (MOLT-4) was > 100 µM (inactive) and the GI50 (SK-MEL-28) was > 100 µM (inactive). The GI50 (UACC-257) was > 100 µM (inactive), the GI50 (HOP-92) was > 100 µM (inactive) and the GI50 (CAKI-1) was > 100 µM (inactive). For the same molecule, the GI50 (M14) was > 100 µM (inactive) and the GI50 (786-0) was > 100 µM (inactive).

Reference: ChEMBL document CHEMBL1201862, “PubChem BioAssay data set” (2004)
